The values below come from patent US6559158B1, “Use of methylnaltrexone and related compounds to treat chronic opioid use side affects” (UR Labs, Inc., priority 1997, dated 2003).

Series [1] concerns chronic methadone subjects. Briefly: Example 3: oral methylnaltrexone, opioid withdrawal and adverse effects. As to conditions: oral 0.3-3.0 mg/kg. As to the method: (§1) Since oral medication is a safer and more convenient way to deliver drugs than is intravenous administration, the efficacy of oral MNTX in relieving constipation in methadone maintained patients was evaluated. Twelve constipated adults (≦2 stool/week) were enrolled. Their daily methadone dose was 73.3±16.2 mg (41-100 mg), mean±SD (range). On day 1 at 9AM, subjects ingested 10 g lactulose (Solvay Pharmaceuticals) to assess oral-cecal transit time as described above, and a placebo capsule. On day 2 at 9AM, subjects again received lactulose, and a capsule containing methylnaltrexone (Mallinckrodt). Ascending oral methylnaltrexone doses (0.3, 1.0, and 3,0 mg/kg) were given to 3 groups of 4 subjects per group. Drug administrations were single-blinded to the subject. Laxation response and potential opioid withdrawal were recorded and blood samples were collected.

Series [2] in a line: Example 3: plasma level after oral methylnaltrexone. Here is the method:
as §1

Series [3] can be described thus: Absorption after oral administration of non-enteric coated compound. It is filed as in vivo. Here is the method: Methylnaltrexone is rapidly absorbed after oral administration from the stomach and bowel. Initial plasma levels of the drug are seen within 5-10 minutes of the administration of non-enteric coated compound. Addition of an enteric coating which prevents gastric absorption is associated with lower plasma levels of the methylnaltrexone.

On to `C[N@+]1(CC2CC2)CC[C@]23c4c5ccc(O)c4O[C@H]2C(=O)CC[C@@]3(O)[C@H]1C5` [methylnaltrexone, N-methylnaltrexone bromide], for which, in series [1] (any subjects), the opioid withdrawal entry was “no opioid withdrawal”. The abdominal cramping entry in series [1] (most subjects) is given as “very mild abdominal cramping”. The adverse effects entry in series [1] is “no adverse effects were reported”. Also, the Peak plasma level in series [2] (4 subjects with detectable level (one 1.0 mg/kg, three 3.0 mg/kg oral), mean±SD, range 10-26) came to 17.8 ± 6.6 ng/mL. The “subjects with undetectable methylnaltrexone in plasma” value in series [2] (of 12 subjects, oral 0.3-3.0 mg/kg) is recorded as “Eight”. Moreover, the “time to initial plasma levels after oral administration” value in series [3] lay in the range of 5 to 10 min.
